Test: UV absorption spectrum in ethanol
Type: physicochemical
Conditions: for UV E1% / UV εmax: at λmax

Structure (SMILES) | UV λmax | UV E1% | UV εmax
CCOC(=O)/C(=C/C=C(c1ccccc1)c1ccccc1)C(=O)OCC(C)C[Si](C)(O[Si](C)(C)C)O[Si](C)(C)C (stereo not drawn) [Example 1, monoethyl mono-3-[1,3,3,3-tetramethyl-1-[(trimethylsilyl)oxy]disiloxanyl]-2-methylpropyl 2-(3,3-diphenylprop-2-enylene)malonate] | 333 nm | 660 | 39 530
C[Si](C)(C)O[Si](C)(CCCOC(=O)/C(C#N)=C\C=C(c1ccccc1)c1ccccc1)O[Si](C)(C)C [Example 3, 3-[1,3,3,3-tetramethyl-1-[(trimethylsilyl)oxy]disiloxanyl]propyl 2-cyano-5,5-diphenylpenta-2,4-dienoate] | 358 nm | 574 | 30 874
C[Si](C)(C)O[Si](C)(CCCNC(=O)/C(C#N)=C/C=C(c1ccccc1)c1ccccc1)O[Si](C)(C)C [Example 5, N-[3-[1,3,3,3-tetramethyl-1-[(trimethylsilyl)oxy]disiloxanyl]propyl]-2-cyano-5,6-diphenylpenta-2,4-dienamide] | 351 nm | 515 | 27 650
CC(COC(=O)C(=CC=C(c1ccccc1)c1ccccc1)C(=O)OCC(C)C[Si](C)(O[Si](C)(C)C)O[Si](C)(C)C)C[Si](C)(O[Si](C)(C)C)O[Si](C)(C)C (stereo not drawn) [Example 6] | 330 nm | 346 | 28 650
CCOC(=O)/C(=C\C=C(c1ccccc1)c1ccccc1)C(=O)NCCC[Si](C)(O[Si](C)(C)C)O[Si](C)(C)C [Example 7, ethyl 4,4-diphenyl-1,3-diene-N-[3-[1,3,3,3-tetramethyl-1-[(trimethylsilyl)oxy]disiloxanyl]propyl]-2-(4,4-diphenylprop-2-ethylene)malonamide] | 335 nm | 542 | 31 650

— patent publication US7439380B2, “Diarylbutadiene-substituted diorganopolysiloxanes and photoprotective compositions comprised thereof” (L'Oreal, priority 2003, dated 2008)
